What was measured:
[1] = molecular target: T1, Muscarinic acetylcholine receptor M4 (Rattus norvegicus) (UniProt P08485); experiment: Positive allosteric modulation of rat M4 receptor expressed in CHO cells co-expressing Gqui5 by calcium mobilization assay relative to acetylcholine; format: functional, cell-based
T1 sequence (whole entry): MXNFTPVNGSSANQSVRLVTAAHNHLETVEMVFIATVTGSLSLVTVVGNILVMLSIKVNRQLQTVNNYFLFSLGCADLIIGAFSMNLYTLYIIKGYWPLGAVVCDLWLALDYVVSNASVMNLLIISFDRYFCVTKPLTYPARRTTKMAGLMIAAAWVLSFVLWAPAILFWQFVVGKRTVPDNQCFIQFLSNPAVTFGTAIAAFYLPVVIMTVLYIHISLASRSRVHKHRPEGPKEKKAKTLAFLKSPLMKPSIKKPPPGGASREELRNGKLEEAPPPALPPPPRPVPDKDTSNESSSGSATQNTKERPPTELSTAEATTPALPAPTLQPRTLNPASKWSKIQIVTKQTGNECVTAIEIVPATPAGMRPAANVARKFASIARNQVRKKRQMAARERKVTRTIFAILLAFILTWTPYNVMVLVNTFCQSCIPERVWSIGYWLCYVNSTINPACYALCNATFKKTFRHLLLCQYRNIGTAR

[2] = Half life in Sprague-Dawley rat at 1 mg/kg, iv; format: ADME, organism-based; settings: in vivo; for half-life: Sprague-Dawley
[3] = molecular target: Muscarinic acetylcholine receptor M3 (Homo sapiens, UniProt P20309); experiment: Displacement of [3H]-N-Methylscopolamine from human M3 receptor expressed in CHOK1 cells; format: cell-based, CHO-K1
[4] = molecular target: T2, Muscarinic acetylcholine receptor M2 (Homo sapiens, UniProt P08172); experiment: Displacement of [3H]-N-Methylscopolamine from human M2 receptor expressed in CHOK1 cells; format: cell-based, CHO-K1
T2 sequence (P08172 whole entry): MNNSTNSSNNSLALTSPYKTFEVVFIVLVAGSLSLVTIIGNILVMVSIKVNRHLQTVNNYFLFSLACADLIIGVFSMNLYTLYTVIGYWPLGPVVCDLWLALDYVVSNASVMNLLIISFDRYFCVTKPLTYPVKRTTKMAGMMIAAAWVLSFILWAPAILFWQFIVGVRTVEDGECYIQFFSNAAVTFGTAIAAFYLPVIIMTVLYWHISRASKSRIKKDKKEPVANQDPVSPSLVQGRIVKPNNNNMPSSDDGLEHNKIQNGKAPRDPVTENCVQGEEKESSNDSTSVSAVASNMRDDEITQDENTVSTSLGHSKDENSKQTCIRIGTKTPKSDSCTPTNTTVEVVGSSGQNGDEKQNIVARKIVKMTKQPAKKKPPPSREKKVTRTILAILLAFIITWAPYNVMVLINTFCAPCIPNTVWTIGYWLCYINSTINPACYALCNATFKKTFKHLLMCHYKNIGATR

[5] = molecular target: T3, Muscarinic acetylcholine receptor M4 (Homo sapiens) (UniProt P08173); experiment: Positive allosteric modulation of human M4 receptor expressed in CHO cells co-expressing Gqui5 by calcium mobilization assay relative to acetylcholine; format: functional, cell-based
T3 sequence (whole entry): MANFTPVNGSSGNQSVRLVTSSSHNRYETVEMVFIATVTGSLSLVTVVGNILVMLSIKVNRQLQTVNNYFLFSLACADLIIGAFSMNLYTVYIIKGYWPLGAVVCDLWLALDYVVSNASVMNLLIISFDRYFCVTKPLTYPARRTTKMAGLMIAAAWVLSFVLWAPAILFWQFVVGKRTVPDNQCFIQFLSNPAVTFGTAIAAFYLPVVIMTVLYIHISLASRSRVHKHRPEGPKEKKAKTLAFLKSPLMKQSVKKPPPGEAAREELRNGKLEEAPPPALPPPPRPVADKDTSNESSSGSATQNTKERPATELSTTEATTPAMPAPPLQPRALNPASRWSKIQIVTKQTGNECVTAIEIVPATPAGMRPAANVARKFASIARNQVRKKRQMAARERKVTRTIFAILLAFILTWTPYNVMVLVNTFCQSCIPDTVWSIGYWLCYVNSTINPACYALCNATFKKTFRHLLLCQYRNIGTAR

[6] = Unbound fraction in human plasma; format: ADME, cell-free
[7] = molecular target: T4, Muscarinic acetylcholine receptor M1 (Homo sapiens, UniProt P11229); experiment: Displacement of [3H]-N-Methylscopolamine from human M1 receptor expressed in CHOK1 cells; format: cell-based, CHO-K1
T4 sequence (P11229 whole entry): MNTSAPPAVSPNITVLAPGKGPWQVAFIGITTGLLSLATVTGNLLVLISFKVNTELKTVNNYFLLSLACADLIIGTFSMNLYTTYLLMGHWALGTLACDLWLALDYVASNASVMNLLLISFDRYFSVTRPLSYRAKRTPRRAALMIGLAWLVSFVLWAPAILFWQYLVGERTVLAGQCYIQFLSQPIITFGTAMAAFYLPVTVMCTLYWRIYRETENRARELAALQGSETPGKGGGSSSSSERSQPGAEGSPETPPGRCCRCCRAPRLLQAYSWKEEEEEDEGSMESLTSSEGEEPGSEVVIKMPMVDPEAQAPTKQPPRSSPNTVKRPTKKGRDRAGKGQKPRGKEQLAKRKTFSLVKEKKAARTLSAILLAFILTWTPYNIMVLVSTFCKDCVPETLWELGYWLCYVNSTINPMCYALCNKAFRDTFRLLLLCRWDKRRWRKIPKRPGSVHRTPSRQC

[8] = molecular target: Muscarinic acetylcholine receptor M3 (Rattus norvegicus, UniProt P08483); experiment: Binding affinity to rat M3 receptor by radio-ligand binding assay
[9] = Ratio of unbound concentration in brain to plasma in Sprague-Dawley rat at 0.20 to 0.25 mg/kg, iv administered through cassette dosing after 0.25 hrs; format: ADME, organism-based
[10] = Ratio of total drug level in Sprague-Dawley rat brain to plasma at 0.20-0.25 mg/kg, iv at 0.25 hrs
[11] = molecular target: T5, Muscarinic acetylcholine receptor M5 (Homo sapiens, UniProt P08912); experiment: Binding affinity to human M5 receptor by radio-ligand binding assay
T5 sequence (P08912 whole entry): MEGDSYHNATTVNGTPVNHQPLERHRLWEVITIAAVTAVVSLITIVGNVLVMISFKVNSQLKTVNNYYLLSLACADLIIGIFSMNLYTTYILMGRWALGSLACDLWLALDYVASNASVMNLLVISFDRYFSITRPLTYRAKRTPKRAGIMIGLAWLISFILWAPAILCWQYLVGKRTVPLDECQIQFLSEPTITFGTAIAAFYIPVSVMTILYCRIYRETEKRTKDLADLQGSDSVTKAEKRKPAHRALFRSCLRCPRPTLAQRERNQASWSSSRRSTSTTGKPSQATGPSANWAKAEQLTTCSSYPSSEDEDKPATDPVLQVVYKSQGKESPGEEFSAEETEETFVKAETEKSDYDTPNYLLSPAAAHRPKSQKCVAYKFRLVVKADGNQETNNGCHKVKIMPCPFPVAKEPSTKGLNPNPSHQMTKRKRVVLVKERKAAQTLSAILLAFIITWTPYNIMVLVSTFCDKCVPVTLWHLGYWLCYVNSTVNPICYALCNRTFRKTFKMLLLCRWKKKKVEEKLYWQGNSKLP

Muscarinic acetylcholine receptor M3 (Rattus norvegicus, UniProt P08483), sequence (P08483 whole entry): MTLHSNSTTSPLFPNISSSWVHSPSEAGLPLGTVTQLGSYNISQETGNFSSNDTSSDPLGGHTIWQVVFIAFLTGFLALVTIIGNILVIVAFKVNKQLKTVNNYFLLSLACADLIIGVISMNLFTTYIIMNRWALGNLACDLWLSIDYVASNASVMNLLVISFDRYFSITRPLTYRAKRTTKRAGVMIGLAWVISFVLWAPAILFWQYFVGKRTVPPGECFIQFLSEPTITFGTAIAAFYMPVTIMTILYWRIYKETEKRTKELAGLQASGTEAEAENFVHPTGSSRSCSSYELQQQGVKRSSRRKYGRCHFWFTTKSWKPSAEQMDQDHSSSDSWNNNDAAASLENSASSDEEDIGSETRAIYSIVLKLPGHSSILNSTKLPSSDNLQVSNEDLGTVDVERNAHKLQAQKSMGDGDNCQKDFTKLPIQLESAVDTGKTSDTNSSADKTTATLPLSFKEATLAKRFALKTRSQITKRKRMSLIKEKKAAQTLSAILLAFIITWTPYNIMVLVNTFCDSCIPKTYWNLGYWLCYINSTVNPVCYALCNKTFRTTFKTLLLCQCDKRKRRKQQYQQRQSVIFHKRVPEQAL
Muscarinic acetylcholine receptor M3 (Homo sapiens, UniProt P20309), sequence (P20309 whole entry): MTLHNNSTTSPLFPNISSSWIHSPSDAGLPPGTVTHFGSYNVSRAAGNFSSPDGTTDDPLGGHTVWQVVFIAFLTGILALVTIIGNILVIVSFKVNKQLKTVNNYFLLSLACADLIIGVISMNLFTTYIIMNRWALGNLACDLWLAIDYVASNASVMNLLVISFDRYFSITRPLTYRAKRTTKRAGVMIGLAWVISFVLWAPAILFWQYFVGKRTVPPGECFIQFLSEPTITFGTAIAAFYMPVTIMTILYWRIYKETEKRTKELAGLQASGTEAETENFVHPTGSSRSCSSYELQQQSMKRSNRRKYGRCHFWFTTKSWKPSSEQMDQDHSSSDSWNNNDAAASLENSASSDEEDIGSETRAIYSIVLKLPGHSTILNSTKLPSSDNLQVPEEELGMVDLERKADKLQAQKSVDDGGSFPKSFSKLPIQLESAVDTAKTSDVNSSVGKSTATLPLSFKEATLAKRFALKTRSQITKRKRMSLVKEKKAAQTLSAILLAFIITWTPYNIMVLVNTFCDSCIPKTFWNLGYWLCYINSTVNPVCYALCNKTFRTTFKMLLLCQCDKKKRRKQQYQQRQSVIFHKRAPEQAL

Row | SMILES | Emax [1] | half-life [2] | EC50 [3] | EC50 [4] | Emax [5] | Fu [6] | EC50 [7] | EC50 [8] | K(p,uu,brain) [9] | Kp [10] | EC50 [11] | t1/2 [2]
1 | Cc1nnc2sc(C(=O)NCc3ccc(S(F)(F)(F)(F)F)cc3)c(N)c2c1C | 75.7% | 3.6 h | > 30 µM | > 30 µM | 66.1% | 0.01 | > 30 µM | > 30 µM | 1 | 1 | > 30 µM | –
2 | Cc1nnc2sc(C(=O)NCc3ccc(S(=O)(=O)C(F)(F)F)cc3)c(N)c2c1C | 68.1% | – | > 30 µM | > 30 µM | 56.4% | 0.019 | > 30 µM | > 30 µM | – | 0.49 | > 30 µM | 5.7 h
3 | Cc1nnc2sc(C(=O)NCc3ccc(S(=O)(=O)C(F)F)cc3)c(N)c2c1C | 65.2% | 2.4 h | > 30 µM | > 30 µM | 72.8% | 0.053 | > 30 µM | > 30 µM | 0.1 | 0.11 | > 30 µM | –
